Measurements: article PMC12259270, “Sensory neuron–expressed FGF13 controls nociceptive signaling in diabetic neuropathy models” (The Journal of Clinical Investigation, 2025)
Residues, ends and D or L forms follow the SMILES beside them. *: point of attachment. NHPh = c1ccc(N*)cc1

How the values were obtained:
[1] = test system: Na+ currents in hIPSC-derived sensory neurons (RealDRG); test: Whole-cell voltage clamp, hIPSC-derived sensory neurons (RealDRG) with Nav1.8 blocker A-803467; assay type: cell-based, human; details: for Activation / Peak Density / Steady-State inactivation / Tau (τ) / Long-term inactivation, 2nd Pulse / Long-term inactivation, 3rd Pulse / Long-term inactivation, 4th Pulse: RealDRG
Protocol: (§1) Next, we conducted whole-cell patch-clamp electrophysiological recordings in hIPSC-derived sensory neurons under three conditions: unstimulated and treated with 0.07% ethanol (capsaicin vehicle), treated with capsaicin (100 nM, 10 minutes), and treated with capsaicin plus SB-366791 (10 μM), a selective TRPV1 inhibitor. Each group was exposed to either vehicle (0.01% DMSO) or PW164 (50 μM), with all recordings performed in the presence of the Nav1.8 blocker A-803467 (300 nM) ([41]). The experimental groups are color coded in Figure 2A. Capsaicin caused potentiation of INa (Figure 2A) and induced hyperpolarizing shifts in the V1/2 of activation (Figure 2B) and SSI (Figure 2C). […] Next, we investigated whether silencing FGF13 could replicate PW164’s effects and prevent additional activity of the compound. hIPSC-derived sensory neurons were transfected with a previously validated pAAV-shFGF13-GFP construct ([42]) (Supplemental Figure 8). […] Neither PW164 nor FGF13 silencing affected Na+ currents in neurons transfected with pAAV-shCTRL-GFP or pAAV-shFGF13-GFP, whether unstimulated or treated with capsaicin in the presence of ProTx II (Supplemental Figure 9 and Supplemental Table 6). Thus, PW164 selectively modulated FGF13-dependent Na^+ current sensitization via TRPV1, with FGF13 silencing mimicking and validating PW164’s effect. […]
(§2) Whole-cell patch clamp electrophysiology
(§3) HEK293-Nav1.7 cells, HEK293 stably expressing human Nav1.6 (HEK-Nav1.6), HEK293 stably expressing human Nav1.5 (HEK-Nav1.5), human hIPSC-derived sensory neurons (RealDRGTM from Anatomic Incorporated 1020F1-1M) and donor-derived DRG neurons were plated at low density on glass coverslips and processed for whole-cell patch clamp electrophysiology in voltage-clamp and/or current clamp mode. Whole-cell patch electrophysiological experiments were conducted following previously published studies (26). Current densities were obtained by dividing INa amplitude by membrane capacitance. Current –voltage relationships were generated by plotting current density as a function of the […]. Conductance (G Na) was calculated by the […]
(§4) where INa is the current amplitude at voltage Vm, and Erev is the Na+ reversal potential.
(§5) Activation curves were derived by plotting normalized GNa as a function of test potential and fitted using […]
(§6) Where GNa,Max is the maximum conductance, Va is the membrane potential of half-maximal activation, Em is the membrane voltage and k is the slope factor. For steady -state inactivation, normalized current amplitude (INa/INa,Max) at the test potential was plotted as a function of prepulse potential (Vm) and fitted using the […]
(§7) Where Vh is the potential of half-maximal inactivation, E m is the membrane voltage, and k is the slope factor.
(§8) Transient INa inactivation decay was estimated with the standard exponential equation. Inactivation time constant (tau, τ) was fitted with the following equation: […]
(§9) where I(t) is the amplitude of the current at time t and Iss is the steady-state current during a single voltage-step.
(§10) The goodness of fitting was determined by correlation coefficient (R), and the cutoff of R was set at 0.85. To observe effects on long-term inactivation (LTI), a four-step protocol was employed during which cells were subjected to four 0 mV, 20 ms depolarization pulses separated by −90 mV, 40 ms recovery intervals. To control for various cell sizes, the current densities were calculated by dividing INa peak current amplitude/membrane capacitance (Cm). To represent the fraction of channels entering into LTI, the peak INa observed during depolarization cycles 2-4 was normalized to the peak INa observed during depolarization cycle 1 (INa/INa,Cycle 1) and plotted as a function of the depolarization cycle.
(§11) The cumulative (frequency-dependent) use-dependency was determined by applying 20 pulses with a depolarization to −10 mV (50 ms duration) and 50 ms recovery intervals with a train of 20 pulses at 10 Hz from a holding potential at -70 mV. […]

[2] = test system: Na+ currents in hIPSC-derived sensory neurons (RealDRG); test: Whole-cell voltage clamp, hIPSC-derived sensory neurons (RealDRG) with Nav1.7 blocker ProTx-II; assay type: cell-based, human; details: for Activation / Peak Density / Steady-State inactivation / Tau (τ) / Long-term inactivation, 2nd Pulse / Long-term inactivation, 3rd Pulse / Long-term inactivation, 4th Pulse: RealDRG
Protocol: as §1, §2, §3, §4, §5, §6, §7, §8, §9, §10, §11

[3] = + A-803467, Control (pAAV-GFP) + ZL192
[4] = + A-803467, Sh (pAAV-shFGF13-GFP) + ZL192
[5] = + Nav1.8 blocker A-803467, Naive + ZL192
[6] = + Nav1.8 blocker A-803467, Naïve + ZL192
[7] = + Nav1.7 blocker ProTx-II, Naive + ZL192
[8] = + Nav1.7 blocker ProTx-II, Naïve + ZL192

CC(=O)N[C@@H](Cc1ccccc1)C(=O)N[C@@H](CC(C)C)C(=O)N1CCC[C@H]1C(=O)N[C@@H](CCCCN)C(=O)Nc1ccccc1 [ZL192] (Ac-FLPK-NHPh) was tested, and the Activation [1, 3] was −29.64 ± 0.92 mV, the “Peak Density” value [1, 3] was −189.79 ± 15.05 pA/pF and the Steady-State inactivation [1, 3] was −70.68 ± 1.76 mV. The “Tau (τ)” value [1, 3] was 1.09 ± 0.05 ms, the “Long-term inactivation, 2nd Pulse” value ([1]; + A-803467, Control + ZL192) was −90.69 ± 2.00 % maximal Na+ current and the “Long-term inactivation, 3rd Pulse” value ([1]; + A-803467, Control + ZL192) was −89.18 ± 2.37 % maximal Na+ current. For the same molecule, the “Long-term inactivation, 4th Pulse” value ([1]; + A-803467, Control + ZL192) was −87.9 ± 2.75 % maximal Na+ current, the Activation [1, 4] was −22.84 ± 1.28 mV and the “Peak Density” value [1, 4] was −77.34 ± 6.83 pA/pF. The Steady-State inactivation [1, 4] was −61.77 ± 2.40 mV, the “Tau (τ)” value [1, 4] was 1.23 ± 0.05 ms and the “Long-term inactivation, 2nd Pulse” value ([1]; + A-803467, Sh + Zl192) was −84.46 ± 3.81 % maximal Na+ current. For the same molecule, the “Long-term inactivation, 3rd Pulse” value ([1]; + A-803467, Sh + Zl192) was −82.09 ± 3.89 % maximal Na+ current, the “Long-term inactivation, 4th Pulse” value ([1]; + A-803467, Sh + Zl192) was −80.59 ± 4.08 % maximal Na+ current and the Activation [1, 5] was −29.92 ± 0.79 mV. For the same molecule, the “Peak Density” value [1, 5] was −181.06 ± 13.74 pA/pF, the Steady-State inactivation [1, 5] was −72.03 ± 0.94 mV and the “Tau (τ)” value [1, 5] was 1.31 ± 0.06 ms. For the same molecule, the “Long-term inactivation, 2nd Pulse” value [1, 6] was −90.95 ± 1.82 % maximal Na+ current, the “Long-term inactivation, 3rd Pulse” value [1, 6] was −88.17 ± 2.02 % maximal Na+ current and the “Long-term inactivation, 4th Pulse” value [1, 6] was −86.7 ± 1.7 % maximal Na+ current. The “effect on INa in naive neurons” value ([1]; ZL192 50 μM, no triggering stimuli) was “potentiated INa”, the “UseDependency (Suppl. Figure S14D)” value ([2]; Control cells, pulse 1) was 1 and the “UseDependency (Suppl. Figure S14D)” value ([2]; Control cells, pulse 3) was 0.9097. The “UseDependency (Suppl. Figure S14D)” value ([2]; Control cells, pulse 5) was 0.8784, the “UseDependency (Suppl. Figure S14D)” value ([2]; Control cells, pulse 10) was 0.8714 and the “UseDependency (Suppl. Figure S14D)” value ([2]; Control cells, pulse 15) was 0.8646. The “UseDependency (Suppl. Figure S14D)” value ([2]; Control cells, pulse 20) was 0.8556, the “UseDependency (Suppl. Figure S14D)” value ([2]; Naive cells, pulse 1) was 1 and the “UseDependency (Suppl. Figure S14D)” value ([2]; Naive cells, pulse 3) was 0.9097. The “UseDependency (Suppl. Figure S14D)” value ([2]; Naive cells, pulse 5) was 0.8778, the “UseDependency (Suppl. Figure S14D)” value ([2]; Naive cells, pulse 10) was 0.8143 and the “UseDependency (Suppl. Figure S14D)” value ([2]; Naive cells, pulse 15) was 0.7732. For the same molecule, the “UseDependency (Suppl. Figure S14D)” value ([2]; Naive cells, pulse 20) was 0.7489, the Activation [2, 7] was −27.64 ± 0.93 mV and the “Peak Density” value [2, 7] was −96.53 ± 4.85 pA/pF. The Steady-State inactivation [2, 7] was −59.34 ± 1.61 mV, the “Tau (τ)” value [2, 7] was 1.33 ± 0.06 ms and the “Long-term inactivation, 2nd Pulse” value [2, 8] was −99.26 ± 0.91 % maximal Na+ current. The “Long-term inactivation, 3rd Pulse” value [2, 8] was −100.38 ± 1.08 % maximal Na+ current, the “Long-term inactivation, 4th Pulse” value [2, 8] was −100.45 ± 1.3 % maximal Na+ current and the Activation ([2]; + ProTx-II, Control + ZL192) was −30.93 ± 0.89 mV. The “Long-term inactivation, 2nd Pulse” value ([2]; + ProTx-II, Control + ZL192) was −98.61 ± 0.74 % maximal Na+ current, the “Long-term inactivation, 3rd Pulse” value ([2]; + ProTx-II, Control + ZL192) was −99.17 ± 0.84 % maximal Na+ current and the “Long-term inactivation, 4th Pulse” value ([2]; + ProTx-II, Control + ZL192) was −98.95 ± 1.01 % maximal Na+ current. For the same molecule, the “Peak Density” value ([2]; + ProTx-II, Control + ZL192) was −101.87 ± 5.35 pA/pF, the Steady-State inactivation ([2]; + ProTx-II, Control + ZL192) was −53.15 ± 0.91 mV and the “Tau (τ)” value ([2]; + ProTx-II, Control + ZL192) was 1.0 ± 0.04 ms. The Activation ([2]; + ProTx-II, Sh + ZL192) was −28.74 ± 1.12 mV, the “Peak Density” value ([2]; + ProTx-II, Sh + ZL192) was −99.91 ± 8.28 pA/pF and the Steady-State inactivation ([2]; + ProTx-II, Sh + ZL192) was −62.97 ± 1.64 mV. The “Tau (τ)” value ([2]; + ProTx-II, Sh + ZL192) was 1.27 ± 0.08 ms, the “Long-term inactivation, 2nd Pulse” value ([2]; + ProTx-II, Sh + Zl192) was −96.65 ± 1.81 % maximal Na+ current and the “Long-term inactivation, 3rd Pulse” value ([2]; + ProTx-II, Sh + Zl192) was −97.25 ± 2.18 % maximal Na+ current. The “Long-term inactivation, 4th Pulse” value ([2]; + ProTx-II, Sh + Zl192) was −99.23 ± 3.28 % maximal Na+ current, the “UseDependency (Suppl. Figure S14D)” value ([2]; ShFGF13 cells, pulse 1) was 1 and the “UseDependency (Suppl. Figure S14D)” value ([2]; ShFGF13 cells, pulse 3) was 0.9541. The “UseDependency (Suppl. Figure S14D)” value ([2]; ShFGF13 cells, pulse 5) was 0.9361, the “UseDependency (Suppl. Figure S14D)” value ([2]; ShFGF13 cells, pulse 10) was 0.8879 and the “UseDependency (Suppl. Figure S14D)” value ([2]; ShFGF13 cells, pulse 15) was 0.8614. The “UseDependency (Suppl. Figure S14D)” value ([2]; ShFGF13 cells, pulse 20) was 0.8526 and the “activity on Na+ currents with ProTx-II” value ([2]; ZL192 50 μM, ProTx-II 10 nM, Suppl Fig 14) was “no activity”.
